In the NIST ThermoML archive (doi:10.1016/j.jct.2016.04.001):
Numbers after ± are expanded uncertainties.

What was measured:
[1] = 296 K; 101.33 kPa; Crystal; X-ray diffraction
[2] = molar heat capacity at constant pressure; details: 101.33 kPa, Crystal, Small sample (50 mg) DSC

In the case of `CCCCC(O)(Cn1cncn1)c1ccc(Cl)cc1Cl` (configuration not stated), the mass density [1] is reported as 1331 ± 7 kg/m3, the “molar heat capacity at constant pressure” value ([2]; 283.15 K) is reported as 342.68 ± 8.7 J/K/mol and the “molar heat capacity at constant pressure” value ([2]; 288.15 K) is reported as 351.02 ± 8.9 J/K/mol. The “molar heat capacity at constant pressure” value ([2]; 293.15 K) was 358.22 ± 9.1 J/K/mol, the “molar heat capacity at constant pressure” value ([2]; 298.15 K) was 364.66 ± 9.2 J/K/mol and the “molar heat capacity at constant pressure” value ([2]; 303.15 K) was 370.65 ± 9.4 J/K/mol. For the same molecule, the “molar heat capacity at constant pressure” value ([2]; 308.15 K) was 376.44 ± 9.5 J/K/mol, the “molar heat capacity at constant pressure” value ([2]; 313.15 K) was 382.23 ± 9.7 J/K/mol and the “molar heat capacity at constant pressure” value ([2]; 318.15 K) was 388.15 ± 9.8 J/K/mol. For the same molecule, the “molar heat capacity at constant pressure” value ([2]; 323.15 K) was 394.25 ± 10 J/K/mol, the “molar heat capacity at constant pressure” value ([2]; 328.15 K) was 400.53 ± 10 J/K/mol and the “molar heat capacity at constant pressure” value ([2]; 333.15 K) was 406.94 ± 10 J/K/mol. For the same molecule, the “molar heat capacity at constant pressure” value ([2]; 338.15 K) was 413.34 ± 10 J/K/mol, the “molar heat capacity at constant pressure” value ([2]; 343.15 K) was 419.55 ± 11 J/K/mol and the “molar heat capacity at constant pressure” value ([2]; 348.15 K) was 425.32 ± 11 J/K/mol. The “molar heat capacity at constant pressure” value ([2]; 353.15 K) was 430.33 ± 11 J/K/mol.

In the case of `CC(C)(C)C(O)/C(=C\c1ccc(Cl)cc1Cl)n1cncn1` (configuration not stated) [Diniconazole], the mass density [1] is reported as 1323 ± 7 kg/m3, the “molar heat capacity at constant pressure” value ([2]; 283.15 K) is reported as 360.4 ± 9.1 J/K/mol and the “molar heat capacity at constant pressure” value ([2]; 288.15 K) is reported as 367.41 ± 9.2 J/K/mol. For the same molecule, the “molar heat capacity at constant pressure” value ([2]; 293.15 K) was 374.58 ± 9.4 J/K/mol, the “molar heat capacity at constant pressure” value ([2]; 298.15 K) was 381.72 ± 9.6 J/K/mol and the “molar heat capacity at constant pressure” value ([2]; 303.15 K) was 388.72 ± 9.8 J/K/mol. The “molar heat capacity at constant pressure” value ([2]; 308.15 K) was 395.47 ± 9.9 J/K/mol, the “molar heat capacity at constant pressure” value ([2]; 313.15 K) was 401.89 ± 10 J/K/mol and the “molar heat capacity at constant pressure” value ([2]; 318.15 K) was 407.93 ± 10 J/K/mol. The “molar heat capacity at constant pressure” value ([2]; 323.15 K) was 413.6 ± 10 J/K/mol, the “molar heat capacity at constant pressure” value ([2]; 328.15 K) was 418.9 ± 11 J/K/mol and the “molar heat capacity at constant pressure” value ([2]; 333.15 K) was 423.89 ± 11 J/K/mol. The “molar heat capacity at constant pressure” value ([2]; 338.15 K) was 428.65 ± 11 J/K/mol, the “molar heat capacity at constant pressure” value ([2]; 343.15 K) was 433.27 ± 11 J/K/mol and the “molar heat capacity at constant pressure” value ([2]; 348.15 K) was 437.91 ± 11 J/K/mol. The “molar heat capacity at constant pressure” value ([2]; 353.15 K) was 442.73 ± 11 J/K/mol.
